What follows are compounds tested on isolated rat liver mitochondria (assay: Residual functional capacity / inhibitory effect on ADP-stimulated (state 3) oxygen consumption). Settings: test conc. 100 μM.
Assay type: biochemical

Going from Oc1ccccc1O [catechol] to COc1ccc(-c2cc(=O)c3c(O)cc(O)c(-c4cc(-c5cc(=O)c6c(O)cc(OC)cc6o5)ccc4OC)c3o2)cc1 [sciadopitysin], the “Inhibitory effect (%)” value falls from 12% to 2%.

Compared with CC(=O)c1ccc(O)cc1 [4-acetylphenol], O=C1c2ccccc2C(=O)c2ccccc21 [anthraquinone] is higher in “Inhibitory effect (%)” value: 13% for the first, 15% for the second.

Compared with “epigallocatechin gallate [(−) epigallocatechin gallate]”, O=c1cc(-c2ccc(O)cc2)oc2c(-c3c(O)cc(O)c4c(=O)cc(-c5ccc(O)cc5)oc34)c(O)cc(O)c12 [cupressuflavone] is higher in “Inhibitory effect (%)” value: 2% for the first, 5% for the second.

In the case of Cc1ccc(C(C)C)c(O)c1 [thymol], the “Inhibitory effect (%)” value is reported as 29%.

Same assay, conditions: test conc. 100 μM; functional capacity (state 3 minus state 4 rate) as % of vehicle-treated mitochondria

First: Oc1ccccc1O [catechol]
Second: COc1ccc(-c2cc(=O)c3c(O)cc(O)c(-c4cc(-c5cc(=O)c6c(O)cc(OC)cc6o5)ccc4OC)c3o2)cc1 [sciadopitysin]
The “Residual capacity (%)” value of the first is lower: 88 ± 1% for the first, 98 ± 0% for the second.

CC(=O)c1ccc(O)cc1 [4-acetylphenol] and O=C1c2ccccc2C(=O)c2ccccc21 [anthraquinone] are within error of each other in “Residual capacity (%)” value: 87 ± 1% for the first, 85 ± 21% for the second.

“epigallocatechin gallate [(−) epigallocatechin gallate]” and O=c1cc(-c2ccc(O)cc2)oc2c(-c3c(O)cc(O)c4c(=O)cc(-c5ccc(O)cc5)oc34)c(O)cc(O)c12 [cupressuflavone] are within error of each other in “Residual capacity (%)” value: 98 ± 2% for the first, 95 ± 4% for the second.

With Cc1ccc(C(C)C)c(O)c1 [thymol] the “Residual capacity (%)” value was 65 ± 5%.

The compounds below were run on isolated rat liver mitochondria (assay: Uncoupling activity: increase in basal (state 4) oxygen consumption by oxygraphy). Settings: 100 μM; result in words.
Assay type: biochemical

With CC(=O)c1ccc(O)cc1 [4-acetylphenol] the uncoupling activity was “lack of activity”.
O=C1c2ccccc2C(=O)c2ccccc21 [anthraquinone] was tested, and the uncoupling activity was “inactive”.

Same assay, conditions: Suppl. Table 1; 100 μM; 2-3 mitochondrial preparations

First: Oc1ccccc1O [catechol]
Second: COc1ccc(-c2cc(=O)c3c(O)cc(O)c(-c4cc(-c5cc(=O)c6c(O)cc(OC)cc6o5)ccc4OC)c3o2)cc1 [sciadopitysin]
The “Measured Uncoupling Activity (% uncoupling ± SEM @ 100 μM)” value of the first is higher: 0 ± 0 % uncoupling for the first, −1 ± 0 % uncoupling for the second.

CC(=O)c1ccc(O)cc1 [4-acetylphenol] and O=C1c2ccccc2C(=O)c2ccccc21 [anthraquinone] are within error of each other in “Measured Uncoupling Activity (% uncoupling ± SEM @ 100 μM)” value: 0 ± 0 % uncoupling for the first, −1 ± 1 % uncoupling for the second.

Going from “epigallocatechin gallate [(−) epigallocatechin gallate]” to O=c1cc(-c2ccc(O)cc2)oc2c(-c3c(O)cc(O)c4c(=O)cc(-c5ccc(O)cc5)oc34)c(O)cc(O)c12 [cupressuflavone], the “Measured Uncoupling Activity (% uncoupling ± SEM @ 100 μM)” value falls from 0 ± 1 % uncoupling to −2 ± 0 % uncoupling.

With Cc1ccc(C(C)C)c(O)c1 [thymol] the “Measured Uncoupling Activity (% uncoupling ± SEM @ 100 μM)” value was 6 ± 0 % uncoupling.

Same assay, conditions: test conc. 100 μM; increase in basal (state 4) oxygen consumption as % of average ADP-stimulated (state 3) rate in vehicle-treated mitochondria

Compared with Oc1ccccc1O [catechol], COc1ccc(-c2cc(=O)c3c(O)cc(O)c(-c4cc(-c5cc(=O)c6c(O)cc(OC)cc6o5)ccc4OC)c3o2)cc1 [sciadopitysin] is lower in “Uncoupling (%)” value: 0 ± 0% for the first, −1 ± 0% for the second.

CC(=O)c1ccc(O)cc1 [4-acetylphenol] and O=C1c2ccccc2C(=O)c2ccccc21 [anthraquinone] are within error of each other in “Uncoupling (%)” value: 0 ± 0% for the first, −1 ± 1% for the second.

Going from “epigallocatechin gallate [(−) epigallocatechin gallate]” to O=c1cc(-c2ccc(O)cc2)oc2c(-c3c(O)cc(O)c4c(=O)cc(-c5ccc(O)cc5)oc34)c(O)cc(O)c12 [cupressuflavone], the “Uncoupling (%)” value falls from 0 ± 1% to −2 ± 0%.

Cc1ccc(C(C)C)c(O)c1 [thymol] was tested, and the “Uncoupling (%)” value was 6 ± 0%.

These compounds were tested on glucose-6-phosphatase (G6Pase) activity in H4IIE hepatocytes (assay: Glucose-6-phosphatase activity in H4IIE hepatocytes). Settings: 1 μM, 16 h.
Assay type: cell-based, murine
Protocol: 2.4 Glucose-6-phosphatase activity in H4IIE hepatocytes: H4IIE murine hepatocytes (American Type Culture Collection) were cultured to confluence in 12-well plates in DMEM supplemented with 10% FBS and antibiotics. […] Effects of test compounds on cellular viability were assessed by measuring the release of lactate dehydrogenase (LDH) into the culture medium at the end of a 16 h treatment using a commercial kit (Cytotoxicity Detection Kit; Roche Diagnostics; Laval, QC) as per the manufacturer's instructions; LDH release was expressed as % of total (medium+lysate) LDH content for each well. Cells were also routinely inspected for abnormal morphology by phase-contrast microscopy at the conclusion of the treatment period. Following treatment, cells were washed in HEPES-buffered saline (10 mM HEPES, pH 7.4, 150 mM NaCl) at 37° C. Glucose-6-phosphatase (G6Pase) activity was assessed by measuring the rate of glucose formation in the presence of a non-limiting amount of glucose-6-phosphate (G6P), as done by others [39B, 40B]. Glucose production was measured with a commercial glucose assay kit (AutoKit Glucose; Wako Diagnostics; Richmond, Va.). Two hundred μl of AutoKit Glucose buffer solution diluted 1:4 in water were added to each well. Cells were then lysed by the addition of 50 μl of 0.05% Triton X-100 in similarly diluted AutoKit Glucose buffer solution. […] At 37° C., after which time 500 μl of AutoKit Glucose color reagent were added and incubation was continued for exactly 5 min. Samples were then rapidly transferred to microcentrifuge tubes. Fifty μl were removed for assay of total protein content in order to account for effects of test compounds on cellular viability or proliferation [41B]. A commercial protein assay kit based on the Bradford method was used (Protein Assay; Bio-Rad Laboratories; Hercules, Calif.). […] The remaining volume was centrifuged at 3000×g for 5 min. Absorbance of the supernatant was measured at 505 nm at ambient temperature and glucose concentration was calculated from a standard curve performed in parallel. Control wells without exogenous G6P were included on each plate for each treatment condition and activity measured from these wells was subtracted from activity measured in the presence of exogenous G6P. G6Pase activity calculated in this way was then expressed normalized to protein content on a well-by-well basis. Two independent experiments in cells of different passages were performed for each of the selected test compounds, with four to six replicates per condition per experiment.
Protocol for assay of glucose-6-phosphatase activity in H4IIE or other hepatocytes: H4IIE murine hepatocytes (American Type Culture Collection) may be cultured to confluence in 12-well plates in Dulbecco's modified Eagle's medium (DMEM) supplemented with 10% fetal bovine serum (FBS), and antibiotics. […] Effects of test compounds on cellular viability may be assessed by measuring the release of lactate dehydrogenase (LDH) into the culture medium at the end of a 16 hour treatment using a commercial kit (e.g., Cytotoxicity Detection Kit; Roche Diagnostics; Laval, QC) as per the manufacturer's instructions; LDH release may be expressed as % of total (i.e., medium+lysate) LDH content for each well. Cells may also be routinely inspected for abnormal morphology by phase-contrast microscopy at the conclusion of the treatment period. Following treatment, cells may be washed in HEPES-buffered saline (10 mM HEPES, pH 7.4, 150 mM NaCl) at 37° C. Glucose-6-phosphatase (G6Pase) activity may be assessed by measuring the rate of glucose formation in the presence of a non-limiting amount of glucose-6-phosphate (G6P). Glucose production may be measured with a commercial glucose assay kit (e.g., AutoKit Glucose; Wako Diagnostics; Richmond, Va.). Two hundred μl of AutoKit Glucose buffer solution diluted 1:4 in water may be added to each well.

In the case of C[C@@H]1C[C@H]2[C@@H]3CCC4=CC(=O)C=C[C@]4(C)[C@@]3(F)[C@@H](O)C[C@]2(C)[C@@]1(O)C(=O)CO [dexamethasone], the “increase in G6Pase activity” value is reported as 56%.

Same assay, conditions: 1 μM, 16 h; listed as Dexamethasone

In the case of C[C@@H]1C[C@H]2[C@@H]3CCC4=CC(=O)C=C[C@]4(C)[C@@]3(F)[C@@H](O)C[C@]2(C)[C@@]1(O)C(=O)CO [dexamethasone], the “increase in G6Pase activity” value is reported as 56±10%.

Each compound was assayed on differentiated C2C12 skeletal muscle cells (assay: 3H-deoxyglucose uptake in C2C12 myotubes). Settings: 100 μM, 18 h.
Assay type: cell-based, murine
Protocol: 2.3 ^3H-deoxyglucose uptake in C2C12 myotubes: Cell culture and the ^3H-deoxyglucose uptake assay were performed as previously described [34B, 35B, 37B]. Briefly, C2C12 murine skeletal myoblasts (American Type Culture Collection; Manassas, Va.) were cultured under standard conditions in 12-well plates. Cells were proliferated to 80% confluence in high-glucose Dulbecco's modified Eagle's medium (DMEM; Wisent; St-Bruno, QC) supplemented with 10% fetal bovine serum (FBS; Wisent), 10% horse serum (HS), and antibiotics. Differentiation into multinucleated myotubes was then promoted with DMEM supplemented with 2% HS and antibiotics. All uptake assays were performed on 7-day differentiated cells, and treatments were timed accordingly. […] DMSO concentration was fixed at 0.1% for all conditions. Cells were routinely inspected for abnormal morphology by phase-contrast microscopy at the conclusion of the treatment period. […] Cells were then washed twice in glucose-free KPB at 37° C. before incubation for exactly 10 min at 37° C. in glucose-free KPB containing 0.5 μCi/ml 2-deoxy-D-[1-^3H]glucose (Amersham Biosciences; Buckinghamshire, UK). Cells were then placed on ice and immediately washed three times with ice-cold KPB. Cells were inspected for monolayer detachment and lysed in 0.1 N NaOH with scraping. […] Three independent experiments of 18 h treatment duration were performed for each of the selected test compounds, with three replicates per condition per experiment. Vehicle-control and 50 μM 2,4-dinitrophenol conditions were included on every plate. Some compounds were also tested at 50 μM under the following conditions: a 15 h treatment with vehicle only followed by a 3 h treatment with the test compound; a 15 h treatment with the test compound followed by a 3 h repeat treatment.
Protocol for ^3H-deoxyglucose uptake assay in C2C12 or other skeletal muscle cells; C2C12 murine skeletal myoblasts (American Type Culture Collection; Manassas, Va.) may be cultured under standard conditions in 12-well plates. Cells may be proliferated to 80% confluence in high-glucose Dulbecco's modified Eagle's medium (DMEM) supplemented with 10% fetal bovine serum (FBS), 10% horse serum (HS), and antibiotics. Differentiation into multinucleated myotubes may be then promoted with DMEM supplemented with 2% HS and antibiotics. All uptake assays may be performed on 7-day differentiated cells, and treatment onset may be timed accordingly. Cells may be treated with reference substances (such as metformin (100 or 400 μM), phenformin (100 μM), or 2,4-dinitrophenol 10-100 μM), compounds described herein, or vehicle (DMSO) in complete differentiation medium. DMSO concentration may be fixed at 0.1% for all conditions. Cells may be routinely inspected for abnormal morphology by phase-contrast microscopy at the conclusion of the treatment period. […] Cells may be then washed twice in glucose-free KPB at 37° C. before incubation for exactly 10 min at 37° C. in glucose-free KPB containing 0.5 μCi/ml 2-deoxy-D-[1-3H]glucose (Amersham Biosciences; Buckinghamshire, UK). Cells may be then placed on ice and immediately washed three times with ice-cold KPB. Cells may be inspected for monolayer detachment and lysed in 0.1 N NaOH with scraping. […] Three or more independent experiments of 18 hours treatment duration may be performed for each test compound, with three or more replicates per condition per experiment. Vehicle-control and 2,4-dinitrophenol conditions may be included on every plate for the purpose of standardizing.

In the case of [H]/N=C(/N)N/C(=N/[H])NCCc1ccccc1 [phenformin], the “increase in basal glucose uptake” value is reported as 48%.

From patent US20140135359A1, “METHODS OF DESIGNING, PREPARING, AND USING NOVEL PROTONOPHORES” (priority 2012, published 2014)
